Assays:
[1] = depends on administration form and/or dosage; cited from earlier work
[2] = test system: whole blood haemostatic activity; assay: Whole blood viscoelastical assay (TEG) during Flolan infusion; format: in vivo, human; conditions: 6 healthy volunteers, 4 ng/kg/min IV, after 60 and 120 min infusion
From the text: The TEG analyzer uses a small whole blood sample in a rotating cup and a pin suspended in the blood by a torsion wire, which is monitored for motion. To speed up the clot formation, a standardized amount of an activator of coagulation (e.g. Kaolin, tissue factor) may be added to the cup just before the pin is placed in the cup. The torque of the rotating cup is transmitted to the immersed pin only after fibrin and/or fibrin-platelet bonding has linked the cup and pin together. The strength and rate of these bonds affect the magnitude of the pin motion such that strong clots move the pin directly in phase with cup motion. Thus, the TEG technology documents the interaction of platelets with the protein coagulation cascade from the time of placing the blood in the analyzer until initial fibrin formation, clot rate strengthening and fibrin-platelet bonding via GPIIb/IIIa, through eventual clot lysis. […]
With regard to the TEG assay this was performed as recommended by the manufacturer and 340 μl are mixed with 20 μl CaCl 0.2 M (final concentration 11.1 mM in the cup) and kaolin at 37° C. after which the haemostatic activity is recorded as depicted in FIG. 1.

[3] = test system: platelet aggregation in whole blood; assay: Whole blood platelet aggregation (Multiplate) during Flolan infusion; format: in vivo, human; conditions: 6 healthy volunteers, 4 ng/kg/min IV, after 60 and 120 min infusion
Protocol: Six healthy volunteers were administered flolan (prostacyclin) intravenously at a dose of 4 ng/kg/min for 2 h. Blood samples for whole blood viscoelastical assay (Thrombelastography [TEG]) and whole blood platelet aggregation (Multiplate) was obtained before infusion of Flolan, after 60 min infusion of Flolan and after 120 min infusion of Flolan.
Whole blood impedance aggregometry analyzed by the Multiple Platelet function Analyzer (MultiPlate® analyzer). Analysis employing various platelet agonists: ASPItest (activation by arachidonic acid), COLtest (activation by collagen through the collagen receptor), TRAPtest (activation by TRAP-6 stimulates the thrombin receptor on the platelet surface and ADPtest (activation by ADP stimulates platelet activation by the ADP receptors).
MultiPlate continuously records platelet aggregation. The increase of impedance by the attachment of platelets onto the Multiplate sensors is transformed to arbitrary aggregation units (AU) and plotted against time as depicted in FIG. 2.

[4] = test system: critically ill patients admitted to the ICU; assay: Retrospective review of haemofiltration with or without Flolan in the filters; format: in vivo, human
Protocol: Ninety-four critically ill patients admitted to the intensive care unit (ICU) underwent haemofiltration with or without concomitant Flolan (prostacyclin) treatment. Flolan was administered in a low dose of 4-6 ng/kg/min in the filters to prevent these from clotting and consequently there was only a minor spill over of Flolan to the systemic circulation. The patients were retrospectively reviewed.

[5] = test system: patients with severe sepsis; conditions: cited from earlier work
[6] = Flolan 4-6 ng/kg/min in the filters, n = 24

## CC#CCC(C)[C@H](O)/C=C/[C@@H]1[C@H]2c3cccc(CCCC(=O)O)c3O[C@H]2C[C@H]1O (mixture of isomers) [Beraprost]
[1]
  half time: 35 to 40 min

## CCCCC[C@H](O)/C=C/[C@@H]1[C@H]2C/C(=C/CCCC(=O)O)O[C@H]2C[C@H]1O [Flolan, prostacyclin]
[2]
  TEG values (R, Angle, MA) vs baseline: No significant difference
[3]
  Multiplate values (ASPI, COL, ADP, TRAP) vs baseline: no significant difference
[1]
  half time: 0.5 to 3 min
[4]; [6]
  90 day survival (%): 67%
  Platelet count (difference before vs. after haemofiltration): +14
[4]; critically ill patients undergoing haemofiltration
  haemostatic competence as evaluated by transfusion requirements: does not negatively influence
[4]; vs. 39% non-flolan, p=0.12
  mortality at 30 days: 21%
[4]; vs. 53% non-flolan, p=0.10
  mortality at 90 days: 34%
[4]; vs. 57% non-flolan, p=0.09
  mortality at 365 days: 38%

## CC#CCC(C)[C@H](O)/C=C/[C@@H]1[C@H]2C/C(=C/CCCC(=O)O)C[C@H]2C[C@H]1O (some centres unmarked) [Iloprost]
[1]
  half time: 20 to 30 min

## CSCCNc1nc(SCCC(F)(F)F)nc2c1ncn2[C@@H]1O[C@H](COP(=O)(O)OP(=O)(O)C(Cl)(Cl)P(=O)(O)O)[C@@H](O)[C@H]1O [cangrelor]
[1]
  half time: 3 to 5 min

## Tifacogin: recombinant tissue factor pathway inhibitor
[5]; 1754 patients, severe sepsis, vs 33.9% placebo, p=0.88
  All cause mortality: 34.2%
[5]; in vivo
  risk of bleeding: increase in risk of bleeding

From patent US9381243B2, “Methods of identifying critically ill patients at increased risk of development of organ failure and compounds for the treatment hereof” (Rigshospitalet, priority 2008, dated 2016)
